Experiment [1] concerns Aβ42. Conditions: transgenic mouse model; cited from earlier work.
Experiment [2] has as its system Aβ42. As to conditions: CHO cells; cited from earlier work.
Another experiment relates to COX. Conditions: cited from earlier work.
For another experiment, the system named is Aβ42 secretion. As to the kind of experiment: Aβ42 secretion by H4 cells expressing APP695, sandwich ELISA. The experiment is classed as cell-based, human. As to conditions: medium collected at 24 or 48 hours, several numbers = independent sets of assays; for IC50: about 1 μM to about 100 μM. As to the method: (§1) The present invention provides compositions and methods for lowering Aβ42 levels. To test whether compounds and compositions are capable of modulating Aβ levels in cultured cells, sandwich enzyme-linked immunosorbent assays (ELISAs) are employed to measure secreted Aβ (Aβ42 and/or Aβ40 levels). In this example, H4 cells expressing wide type APP695 are seeded at 200,000 cells per well in 6 well plates, and incubated at 37° C. with 5% CO2 overnight. Cells are treated with 1.5 ml medium containing vehicle (DMSO) or a test compound at 1.25 μM, 2.5 μM, 5.0 μM and 10.0 μM (as well as other concentration if desirable) for 24 hours or 48 hours. The supernatant from treated cells is collected into eppendorf tubes and frozen at −80° C. for future analysis.
(§2) The amyloid peptide standard is reconstituted and frozen samples are thawed. The samples and standards are diluted with appropriate diluents and the plate is washed 4 times with Working Wash Buffer and patted dry on a paper towel. 100 μL per well of peptide standards, controls, and dilutions of samples to be analyzed is added. The plate is incubated for 2 hours while shaking on an orbital plate shaker at RT. The plate is then washed 4 times with Working Wash Buffer and patted dry on a paper towel. Detection Antibody Solution is poured into a reservoir and 100 μL/well of Detection Antibody Solution is immediately added to the plate. The plate is incubated at RT for 2 hours while shaking and then washed four times with Working Wash Buffer and patted dry on a paper towel. Secondary Antibody Solution is then poured into a reservoir and 100 μL/well of Secondary Antibody Solution is immediately added to the plate. The plate is incubated at RT for 2 hours with shaking, washed 5 times with Working Wash Buffer, and patted dry on a paper towel.
(§3) 100 μL of stabilized chromogen is added to each well and the liquid in the wells begins to turn blue. The plate is incubated for 30 minutes at room temperature and in the dark. 100 μL of stop solution is added to each well and the plate is tapped gently to mix resulting in a change of solution color from blue to yellow. The absorbance of each well is read at 450 nm having blanked the plate reader against a chromogen blank composed of 100 μL each of stabilized chromogen and stop solution. The plate is read within 2 hours of adding the stop solution. The absorbance of the standards is plotted against the standard concentration and the concentrations of unknown samples and controls are calculated.
(§4) The present invention provides compositions and methods for lowering Aβ42 levels. To test whether compounds and compositions are capable of modulating Aβ levels, sandwich enzyme-linked immunosorbent assays (ELISAs) is employed to measure secreted Aβ42 and/or Aβ40 levels. In this example, H4 cells expressing wide type APP695 are seeded at 200,000 cells per well in 6 well plates, and incubated at 37° C. with 5% CO2 overnight. Cells are treated with 1.5 mL medium containing vehicle (DMSO) or a test compound at 1.25 μM, 2.5 μM, 5.0 μM and 10.0 μM concentration for 24 hours or 48 hours. The supernatant from treated cells is collected into eppendorf tubes and frozen at −80° C. for future analysis.
(§5) 130 μL per well of samples, standards, and blanks is added to a 96-well polypropylene plate. […] of samples, standards, and blanks from the polypropylene plate is added to the antibody-coated plates. The strip-holder with the appropriate number of strips is applied to the antibody-coated plates and the strips are covered with an adhesive sealer. The plate is then incubated 3 hours at room temperature while shaking on an orbital plate shaker.
(§6) The first antibody solution is prepared with Conjugate Diluent 1 at 1:100 ratio. Each well of the antibody-coated plates is washed 5 times with 400 μL washing solution and 100 μL of the prepared first antibody solution is added to each well. […]
In general terms: An ELISA detects its analyte on a solid surface through an enzyme-linked reagent.

The next experiment has as its system Aβ40 secretion. As to the kind of experiment: Aβ40 secretion by H4 cells expressing APP695, sandwich ELISA. The experiment is classed as cell-based, human. Conditions: medium collected at 24 or 48 hours, several numbers = independent sets of assays; for IC50: about 1 μM to about 100 μM. The method, then:
as §1, §2, §3, §4, §5, §6

The mark [3] stands for this setting: Homo sapiens, test compound 100 μM vs DMSO control.
Where [4] appears, read: test compound 100 μM vs DMSO control.

Like-named read-outs stand apart in the source and are kept apart here.

For the molecule `C[C@@H](C(=O)O)c1ccc(-c2ccccc2)c(F)c1` [R-Flurbiprofen], the Aβ42 lowering result in the experiment on Aβ42 [1] and with Aβ42 [2] was “lower Aβ42” each time. Besides, in the experiment with COX, the “inhibition of COX activity” value is given as “negligibly inhibits COX activity”.
`O=C(O)c1cccc(-n2c(-c3ccccc3)cc(-c3ccccc3)c2C2CC2)c1` [Compound 33, 3-(2-Cyclopropyl-3,5-diphenyl-pyrrol-1-yl)-benzoic acid]: the IC50 (in general, the concentration at which inhibition is half-maximal) was found to be 21 µM in the experiment with Aβ42 secretion (Homo sapiens), 24 µM in the experiment with Aβ42 secretion, 74 µM with Aβ40 secretion (Homo sapiens) and 79 µM in the experiment on Aβ40 secretion. Further, the inhibition (commonly the relative decrease from the control value, in per cent) at 100 µM was 89% in the experiment with Aβ42 secretion (setting [3]) and 73% in the experiment with Aβ40 secretion (setting [3]). Besides, the “% Inhibition of Aβ42 Secretion @ 100 μM” value with Aβ42 secretion (setting [4]) is recorded as 86%. Besides, in the experiment on Aβ40 secretion (setting [4]), the “% Inhibition of Aβ40 Secretion @ 100 μM” value is recorded as 73, 73%.
On to `O=C(O)c1cccc(-n2c(CCc3ccccc3)ccc2-c2ccccc2)c1` [Compound 23, 3-(2-Phenethyl-5-phenyl-pyrrol-1-yl)-benzoic acid], for which the IC50 with Aβ42 secretion (Homo sapiens) stood at 23 µM; with Aβ40 secretion (Homo sapiens) it was 70 µM. The inhibition at 100 µM in the experiment with Aβ42 secretion (setting [3]) is 77%; in the experiment with Aβ40 secretion (setting [3]) it was 67%.

The record behind these values is patent US8217073B2, “Pyrrole derivatives as therapeutic compounds” (Myrexis, Inc., priority 2005, dated 2012).
